Like-named read-outs stand apart in the source and are kept apart here.
Legend:
[1] = system: tubulin in MCF-7 breast cancer cells; test: Immunofluorescence confocal microscopy of microtubules; assay type: cell-based, human; details: 16 h, 22b 10 μM, paclitaxel and phenstatin 1 μM
Protocol: Briefly, the MCF-7 cells were seeded at a density of 1 × 10^5 cells/mL on eight chamber glass slides (BD Biosciences). […] The cells were then washed in PBS, fixed for 20 min with 4% paraformaldehyde in PBS, and permeabilized in 0.5% Triton X-100. […] Images of the cells were obtained using Leica SP8 confocal microscopy (Wetzlar, Germany) with Leica application suite X software (Wetzlar, Germany). Experiments were performed on three independent occasions.
The micrograph images were obtained with Leica SP8 confocal microscopy utilizing Leica application suite X software. Representative confocal images of three separate experiments are shown. The scale bar indicates 25 μm.

[2] = system: MCF-7 breast cancer cells; details: cited from earlier work
[3] = system: MDA-MB-231 breast cancer cells; design: method as in PMID 33671674; details: cited from earlier work
[4] = system: purified bovine brain tubulin; design: method as in PMID 33671674; details: 10 μM; cited from earlier work
[5] = system: MCF-7 breast cancer cells; test: alamarBlue cell viability assay; assay type: cell-based; details: Homo sapiens
Protocol: Figure 5 Preliminary cell viability data for Series 1: (A) compounds 22a–22g and chalcone 20b and Series 2: (B) compounds 23a–e and chalcone 20b in MCF-7 breast cancer cells. Cell proliferation of MCF-7 cells was determined with an alamarBlue assay (seeding density 2.5 × 10^4 cells/mL per well for 96-well plates). Compound concentrations of either 1 or 0.1 μM for 72 h were used to treat the cells (in triplicate) with control wells containing vehicle ethanol (1% v/v). The mean value ± SEM for three independent experiments is shown. The positive controls used are CA-4 and phenstatin (1.0 μM and 0.1 μM). Statistical analysis was performed using One-way ANOVA with the Sidak multiple comparison test (***, p < 0.001).
HL-60 cells were suspension cells and the seeding density for the viability assay was 25,000 cells/mL. MCF-7 cells (adherent) were cultured in Minimum Essential Media (MEM) with GlutaMAX™-I, supplemented with 1% (v/v) non-essential amino acids, 10% (v/v) fetal bovine serum (FBS), purchased from BD Biosciences (Edmund Halley Road, Oxford, UK), and 1% (v/v) penicillin/streptomycin 5000 U/mL. The MCF-7 cells used in the screening of the compounds during these experiments were mycoplasma-free. The seeding density of MCF-7 in the viability assay was 25,000 cells/mL and 50,000 cells/mL in the FACS assay. Normal breast cells (MCF-10A) (adherent) were cultured in Dulbecco’s Modified Eagle Medium: Nutrient Mixture F-12 (DMEM/F12; Gibco) supplemented with 5% horse serum (Invitrogen, Waltham, MA, USA), 20 ng/mL epidermal growth factor (Merck Millipore, Burlington, MA, USA), 0.5 μg/mL hydrocortisone (Sigma, Kanagawa, Japan), 100 ng/mL cholera toxin (Sigma), 10 μg/mL insulin (Sigma), and penicillin/streptomycin 5000 U/mL (1%) (Gibco, Waltham, MA, USA). […] MDA-MB-231 cells were cultured in Dulbecco’s Modified Eagle Medium, which was supplemented with 10% (v/v) fetal bovine serum (FBS) and 1% (v/v) penicillin/streptomycin 5000 U/mL. When not in use, all cells were kept in liquid nitrogen and frozen in a freezing media made of 90% FBS and 10% DMSO. All cells were grown in an atmosphere of 5% CO2/95% air in T75 culture flasks. The media was changed every 2–3 days and media was always prewarmed to 37 °C. All were sub-cultured every 3–4 days by trypsinization using TrypLE™ Express enzyme when confluence was reached to allow growth, prevent excessive cell death, and minimize the risk of infections derived by over-confluence. For the cell viability assay, the number of cells per milliliter was 25,000 cells/mL while the FACS assay utilized 50,000 cells/mL. Cells were maintained at 37 °C in 5% CO2 in a humidified incubator.
The biochemical assays were performed in triplicate and on at least three independent occasions to facilitate the determination of mean values. For the viability assay, cells were grown until 80% confluent. Adherent cells such as MCF-7, MDA-MB-231, and MCF-10A were trypsinized to detach them from the flask, counted as previously described, and seeded in 96 well plates with a seeding density of 25,000 cells /mL (200 µL of suspension in each well so that the final number of cells per well was 5000) and 1 × 10^4 cells/well seeding density for suspension HL-60 cells. Adherent cells were incubated for 24 h after being seeded in the 96 well plate and treated on the following day, while suspension cells were treated on the same day of the seeding. In both cases, the incubation time after the treatment with the drug was 72 h. After 68 h incubation, the AlamarBlue was added (20 µL in each well) and the incubation time was completed. After 72 h, the change in color was measured by spectrofluorimetry at an excitation wavelength of 544 nm and emission wavelength of 590 nm. AlamarBlue is a cell viability indicator containing a compound called resazurin. AlamarBlue is water soluble, stable in culture media, non-toxic, and is permeable through the cell membrane. […]

MCF-7 cells = system: MCF-7 cells; design: method as in PMID 33671674; details: 1 μM, cited from earlier work
[6] = system: MCF-7 breast cancer cells; design: method as in PMID 33671674; details: cited from earlier work
[7] = system: K562 human chronic myelogenous leukemia cell line; design: method as in PMID 19837593; details: cited from earlier work
HL-60 cells = details: reported values; cited from earlier work
[8] = system: MDA-MB-231 breast cancer cells; details: reported values; cited from earlier work
[9] = MCF7, MCF-7, 1 μM, 72 h, read-out: viable cells

In the case of `CC(=O)O[C@H]1C(=O)[C@@]2(C)[C@H]([C@H](OC(=O)c3ccccc3)[C@]3(O)C[C@H](OC(=O)[C@H](O)[C@@H](NC(=O)c4ccccc4)c4ccccc4)C(C)=C1C3(C)C)[C@]1(OC(C)=O)CO[C@@H]1C[C@@H]2O` [paclitaxel], the “effect on microtubule network” value [1] is reported as “hyperpolymerization of tubulin”.
For `COc1ccc(C(=O)c2cc(OC)c(OC)c(OC)c2)cc1O` [phenstatin], the “effect on microtubule network” value [1] is listed as “depolymerization of tubulin”, the IC50 [2] is listed as 34 nM and the total apoptosis ([3]; 0.1 μM) is listed as 16.6%. For the same molecule, the total apoptosis ([3]; 0.5 μM) was 17.9%, the “reduction in the polymer mass vs vehicle” value [4] was 10 fold and the viability at 1 µM ([5]; MCF7, 72 h, read-out: viable cells) was 30%. The “cells in G2/M phase” value (MCF-7 cells; 24 h) was 65%, the “cells in G2/M phase” value (MCF-7 cells; 48 h) was 57% and the “cells in G2/M phase” value (MCF-7 cells; 72 h) was 51%. The “cells in apoptosis (sub-G1)” value (MCF-7 cells; 72 h) was 18%, the total apoptosis ([6]; 0.1 μM) was 36.1% and the total apoptosis ([6]; 0.5 μM) was 46%.
In the case of `C(=C\C(c1ccncc1)n1ccnc1)/c1c2ccccc2cc2ccccc12` (stereo not shown) [Compound 33b, (E)-4-(3-(Anthracen-9-yl)-1-(1H-imidazol-1-yl)allyl)pyridine], the viability at 1 µM [5, 9] is reported as 92%.
`COc1ccc(/C=C/C(=O)c2cc(OC)c(OC)c(OC)c2)cc1O` [Compound 20b, (E)-3-(3-hydroxy-4-methoxyphenyl)-1-(3,4,5-trimethoxyphenyl)prop-2-en-1-one, reference compound] showed an IC50 ([5]; MCF7, MCF-7, 72 h) of 67 ± 17 nM.
For `COc1ccc(/C=C(\C)C(=O)c2cc(OC)c(OC)c(OC)c2)cc1O` [Compound 16a], the IC50 [7] is given as 0.21 nM.
Molecule `COc1ccc(/C=C/C(c2cc(OC)c(OC)c(OC)c2)n2cncn2)cc1OC` (stereo not shown) [Compound 22d, (E)-1-(3-(3,4-Dimethoxyphenyl)-1-(3,4,5-trimethoxyphenyl)allyl)-1H-1,2,4-triazole] has a viability at 1 µM [5, 9] of 74%.
With `COc1ccc(C2CC(=O)c3cc(OC)c(OC)c(OC)c32)cc1O` (stereo not shown) [Compound 24a, 3-(3-Hydroxy-4-methoxyphenyl)-4,5,6-trimethoxy-2,3-dihydro-1H-inden-1-one, reference compound] the viability at 0.1 µM ([5]; MCF7, MCF-7, 0.1 μM, 72 h, read-out: viable cells) was 70% and the viability at 1 µM [5, 9] was 35%.
For `COc1ccc(/C=C\c2cc(OC)c(OC)c(OC)c2)cc1O` [CA-4, combretastatin CA-4], the IC50 (HL-60 cells) is given as 1.9 ± 0.5 nM, the IC50 [2] is given as 4 nM and the IC50 ([2]; reported values) is given as 3.9 ± 0.32 nM. The viability at 1 µM [5, 9] was 24% and the IC50 [8] was 43 nM.
Molecule `COc1cc(/C=C/C(c2cc(OC)c(OC)c(OC)c2)n2cncn2)cc(OC)c1OC` (stereo not shown) [Compound 22c, (E)-1-(1,3-Bis(3,4,5-trimethoxyphenyl)allyl)-1H-1,2,4-triazole] has a viability at 1 µM [5, 9] of 70%.

Source: paper PMC11769294, “(E)-1-(3-(3-Hydroxy-4-Methoxyphenyl)-1-(3,4,5-Trimethoxyphenyl)allyl)-1H-1,2,4-Triazole and Related Compounds: Their Synthesis and Biological Evaluation as Novel Antimitotic Agents Targeting Breast Cancer” (Pharmaceuticals, 2025)
